“Also recorded” adds a separate entry of the source. Where two headings read alike, the source gives them in different places.
Experiments:
[1] = biological target: T1, T-ag oligomerization on 64-bp oligonucleotide containing the SV40 core origin (Simian virus 40, UniProt P03070); type: biochemical; conditions: T-ag 6 pmol; for Effect on T-ag oligomerization, mutant set (FIG. 11 Panel B): 64-bp SV40 core origin, peptide concentration not given; for Effect on T-ag oligomerization (hexamer and double hexamer formation): peptide final concentration 1 mM (20 nmoles)
T1 construct: made in house
T1 sequence (P03070 whole entry): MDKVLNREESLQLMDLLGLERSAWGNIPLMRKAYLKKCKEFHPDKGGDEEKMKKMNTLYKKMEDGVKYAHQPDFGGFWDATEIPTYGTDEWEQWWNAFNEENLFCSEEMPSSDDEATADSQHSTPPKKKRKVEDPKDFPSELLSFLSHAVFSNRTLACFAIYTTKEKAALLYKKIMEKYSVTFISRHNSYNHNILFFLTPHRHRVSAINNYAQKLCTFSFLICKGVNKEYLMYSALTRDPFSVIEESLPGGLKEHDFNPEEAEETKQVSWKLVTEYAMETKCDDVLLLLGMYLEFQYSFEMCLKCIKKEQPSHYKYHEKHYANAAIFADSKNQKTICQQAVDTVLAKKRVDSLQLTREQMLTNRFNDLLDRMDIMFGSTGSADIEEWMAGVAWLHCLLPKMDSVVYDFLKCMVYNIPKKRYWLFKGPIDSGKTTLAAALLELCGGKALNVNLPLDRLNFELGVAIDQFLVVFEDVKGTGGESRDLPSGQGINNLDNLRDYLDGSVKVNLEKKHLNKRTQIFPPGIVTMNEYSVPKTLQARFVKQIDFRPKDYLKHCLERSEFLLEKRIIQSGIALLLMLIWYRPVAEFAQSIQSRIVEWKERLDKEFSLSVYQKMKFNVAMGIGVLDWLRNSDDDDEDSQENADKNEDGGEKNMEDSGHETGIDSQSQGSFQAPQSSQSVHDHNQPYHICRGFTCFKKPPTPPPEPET
Method: (§1) Electrophoretic mobility shift assays (EMSA). Double stranded oligonucleotides, ^32P labeled at 5′ termini, were prepared using standard procedures (Sambrook, J., et al., 1989, Cold Spring Harbor Laboratory, Cold Spring Harbor, N.Y.; Sreekumar, K. A., et al., 2000, p. 49-67; In, L. Raptis (ed.), Methods in Molecular Biology; SV40 Protocols; Humana Press; Totowa, N.J.). EMSA rections were conducted using conditions for SV40 in vitro replication (Wobbe, C. R., et al., 1985, Proc. Natl. Acad. Sci. USA 82:5710-571 4). The reactions (20 μl) contained 7 mM MgCl2, 0.5 mM DTT, 4 mM AMP-PNP, 40 mM creatine phosphate (pH 7.6), 0.48 μg of creatine phosphate kinase, 5 μg of bovine serum albumin, 0.8 μg of Hae III-digested pBR322 ([…]; used as a nonspecific competitor), about 25 fmol of double stranded oligonucleotide, T-ag and the indicated amounts of peptide. After a 20-min incubation at 37° C., glutaraldehyde (0.1 % final concentration) was added and the reaction products were further incubated for 5 min. The reactions were stopped by the addition of 5 μl of 6× loading dye II (15% Ficoll, 0.25% bromophenol blue, and 0.25% xylene cyanol; Sambrook, J., et al., 1989, Cold Spring Harbor Laboratory, Cold Spring Harbor, N.Y.) to the reaction mixtures. Samples containing T-ag were applied to 3.5 to 12% gradient polyacrylamide gels and electrophoresed in 0.5% Tris-borate-EDTA (TBE) pH 8.4 for about 1.5 h (10 watts).

[2] = system: double stranded oligonucleotide containing the SV40 core origin (SEQ ID NO: 24); experiment: Nitrocellulose filter binding of peptide to DNA
Method: Nitrocellulose filter binding reactions. Assay for the ability of NLS based peptides to bind to DNA were performed using published methods (Sreekumar, K. A., et al., 2000, In, L. Raptis (ed.), Methods in Molecular Biology: SV40 Protocols; Humana Press, Totowa, N.J. p. 49-67). Reactions (20 μl) contained 7 mM MgCl2, 0.5 mM DTT, 4 mM AMP-PNP, 40 mM creatine phosphate (di-Tris salt pH7.7), 0.48 μg of creatine phosphokinase, 0.2 mg of bovine serum albumin per ml, 0.8 μg of Hae III-digested pBR322 DNA, about 25 fmol of a given oligonucleotide (about 10^6 cpm/pmol) and the indicated peptide. After incubation for 20 min at 37° C., the mixtures were filtered under suction through alkali-treated nitrocellulose filters (Millipore type HAWP; pore size, 0.4 μm; stored in 100 mM Tris-HCl, pH7.5). The filters were then washed with 5 ml of 100 mM Tris-HCl, pH 7.5, and were dried and counted in a Beckman LS 3801 scintillation counter.

[3] = system: 64 bp SV40 core origin (SEQ ID NO: 24); experiment: Peptide band shift (EMSA without T-ag), core origin; type: binding; conditions: for Peptide/DNA complex formation in peptide band shift: SV40 core origin, 13-mer set at 1 mM final concentration (20 nmoles); for DNA binding seen in EMSA without cross-linking: absence of cross-linking with glutaraldehyde
Method: as §1
[…] Moreover, the samples were loaded on 8% polyacryamide gels and electrophoresed in 0.5% TBE pH 8.4 for about 3h (about 200 volts). The gels were dried on Whatman 3 MM paper, subjected to autoradiography and quantitated using a Molecular Dynamics PhosphorImager (Sunnyvale, Calif.).

[4] = system: 64 bp enhancer control (SEQ ID NO: 29); experiment: Peptide band shift (EMSA without T-ag), control oligonucleotide; type: binding; conditions: 64 bp enhancer control oligonucleotide
Method: as §1
Peptide based band shift reactions were identical to those described above except that T-ag was omitted from the reactions and the final glutaraldehyde concentration was reduced to 0.05 %. Moreover, the samples were loaded on 8% polyacryamide gels and electrophoresed in 0.5% TBE pH 8.4 for about 3h (about 200 volts). The gels were dried on Whatman 3 MM paper, subjected to autoradiography and quantitated using a Molecular Dynamics PhosphorImager (Sunnyvale, Calif.).

T-ag helicase ATPase = biological target: T2, T-ag helicase ATPase (Simian virus 40, UniProt P03070); type: biochemical, SV40; conditions: duplicate lanes, FIG. 13
T2 construct: made in house
T2 sequence (P03070 whole entry): as above
Method: A method for measuring ATP hydrolysis involves incubating T-ag with a ^32P-labeled ATP, cross-linking with gluteraldehyde, removing unincorporated nucleotides by passing the reaction products over a Bio-Spin P-30 column, drying the eluate in a Speedvac, resuspending the samples in formic acid, and performing thin layer chromatography on PEI (polyethyleneimine) plates. Using autoradiography, the amount of ATP, ADP and AMP associated with T-ag was determined.

[5] = system: SV40 DNA replication in HeLa human cell crude extracts; experiment: SV40 in vitro replication reaction; type: biochemical; set-up: Amount of peptide that completely blocks replication: unit not given here; conditions: for Inhibition of SV40 in vitro DNA replication: 30 μl reactions, with T-ag
Method: DNA replication reactions. SV40 in vitro replication reactions were conducted as described by Wobbe et al 1985, Proc. Natl. Acad. Sci. USA 82:5710-5714 (see also, Bullock, P. A., et al., 1998, p. 223-243. In S. Cotterill (ed.), Eukaryotic DNA Replication; A practical Approach, Oxford University Press, Oxford). Reaction mixtures (30 μl) contained 7 mM MgCl2, 0.5 mM DTT, 4 mM ATP, 40 mM creatine phosphate (di-Tris salt pH7.7), 1.4 μg of creatine phosphokinase, 12.5 μg/ml pSV01ΔEP, dATP, dGTP, and dTTP (100 μM each), CTP, GTP, and UTP (200 μM each), [α-^32p] dCTP (20 μM, about 5 cpm/fmol) and the indicated peptides.

double-stranded DNA = experiment: Binding of NLS peptides to double-stranded DNA
Method: (§2) In the examples that follow, peptides were designed and synthesized to contain NLS regions from a variety of viral and human proteins, in particular, T-ag of SV40, and each of the proteins encoded by the human tumor suppressor p53 gene (SEQ ID NO: 1), the E1 protein encoded by bovine papillomavirus (SEQ ID NO: 2), and a set of control peptides. Binding assays of these peptides were performed with a 64 bp oligonucleotide derived from the SV40 core origin (SEQ ID NO: 24). […] Single stranded DNA was bound poorly by p53 and E1 NLS region peptides.

single-stranded DNA = experiment: Binding of NLS peptides to single-stranded DNA
Method: as §2

## ADSQHSTPPKKKR (Virus; Host Macaca mulatta; DOMAIN (1)..(13) Domain of SV40 T-Antigen Protein (118)...(130)) [peptide 213, 13-mer of SV40 T-ag centered on Thr124]
[1]; listed as SEQ ID NO: 3
  Effect on T-ag oligomerization, mutant set (FIG. 11 Panel B): complete inhibition of oligomerization
[1]; listed as peptide T-213
  Effect on T-ag oligomerization, mutant set (FIG. 11 Panel B): inhibited T-ag oligomerization
  Effect on T-ag oligomerization (hexamer and double hexamer formation): formation of the standard hexamer and double hexamer protein was inhibited
[1]; peptide final concentration 0.5 mM
  Effect on T-ag oligomerization: inhibited T-ag assembly events
[1]
  Effect on T-ag oligomerization (hexamer and double hexamer formation): inhibited both hexamer and double hexamer formation
[2]; high peptide concentrations (1 mM and 2 mM)
  Binding to DNA in filter binding assay: saturation of binding was observed
[2]; peptide 0.5 mM
  Binding to DNA in filter binding assay: bound relatively poorly
[2]; peptide 0.5 mM to 2 mM, replication conditions, pBR322 competitor
  Binding to DNA in filter binding assay: binds to DNA
[2]; peptide 0.5 mM to 2 mM, replication conditions, pBR322 competitor, listed as peptide T-213
  Binding to DNA in filter binding assay: able to bind to DNA
[3]
  Peptide/DNA complex formation in peptide band shift: found to bind to DNA
[3]; listed as T-213
  Peptide/DNA complex formation in peptide band shift: Mobility shifts are seen
[3]; listed as peptide T-213
  Peptide/DNA complex formation in peptide band shift: binds to DNA
[4]
  Peptide/DNA complex formation in peptide band shift: bound to the 64 bp enhancer control
[4]; listed as peptide T-213
  Peptide/DNA complex formation in peptide band shift: able to bind to the 64-bp enhancer control
T-ag helicase ATPase
  Effect on ATPase of T-ag: inhibited the ATPase of T-ag

## KRKVLGSSQNSSGSEASETPVKRRK [BP-E125]
[2]; low peptide concentration 0.25 mM
  Binding to DNA in filter binding assay, E1 peptides: better DNA binder than peptide 217
[2]; low peptide concentration 0.25 mM, listed as peptide E1-P225
  Binding to DNA in filter binding assay, E1 peptides: binds at a relatively low concentration of peptide
[2]; peptide 0.25 mM and 0.5 mM
  Binding to DNA in filter binding assay, E1 peptides: binds to DNA at a lower concentration than does peptide 217
[2]; peptide 0.25 mM and 0.5 mM, listed as BP-E1
  Binding to DNA in filter binding assay, E1 peptides: bound to DNA
[2]; peptide 0.25 mM and 0.5 mM, listed as SEQ ID NO: 2
  Binding to DNA in filter binding assay, E1 peptides: best DNA binder
[2]; peptide 0.25 mM and 0.5 mM, listed as peptide E1-P225
  Binding to DNA in filter binding assay, E1 peptides: found to bind to DNA
[3]; listed as SEQ ID NO: 2
  DNA binding seen in EMSA without cross-linking: does not require cross-linking with glutaraldehyde
[3]; listed as peptide E1-225
  DNA binding seen in EMSA without cross-linking: successful EMSA experiments
[5]
  Concentration of peptide that completely blocked viral DNA replication: about 600 μM
  Inhibition of SV40 in vitro DNA replication: at all concentrations tested inhibited; also recorded: inhibits in vitro DNA replication reactions
[5]; listed as SEQ ID NO: 2
  Inhibition of SV40 in vitro DNA replication: best inhibitor of DNA replication
[5]; added to a reaction
  Amount of peptide that completely blocks replication: 20
T-ag helicase ATPase
  Effect on ATPase of T-ag: blocked the degradation of ATP by T-ag
double-stranded DNA
  Binding to double-stranded DNA: bind to double-stranded DNA
single-stranded DNA
  Binding to single-stranded DNA: bound poorly

## TKRALPNNTSSSPQPKKKPL (DOMAIN (1)..(20) Domain of p53 (304)...(323); listed as Homo sapiens) [SEQ ID NO: 1, peptide from the NLS/Cdk region of human p53]
double-stranded DNA
  Binding to double-stranded DNA: bind to double-stranded DNA; also recorded: binds to double-stranded
single-stranded DNA
  Binding to single-stranded DNA: bound poorly; also recorded: not single-stranded DNA

From patent US20040147006A1, “Peptides that bind to DNA and inhibit DNA replication, and methods of use” (priority 2001, published 2004)
